{
  "source": "paper PMC9483557",
  "about": "“Reisomerization of retinal represents a molecular switch mediating Na^+ uptake and release by a bacterial sodium-pumping rhodopsin” (The Journal of Biological Chemistry, 2022)",
  "target": "T1, IaNaR (Indibacter alkaliphilus, UniProt S2D3K4)",
  "T1 construct": "gene A33Q_3728; C-terminal His tag, E. coli BL21, vector pKA001, DDM-solubilised, Ni-NTA purified, reconstituted in Egg-PC liposomes",
  "T1 sequence (S2D3K4 1-279)": "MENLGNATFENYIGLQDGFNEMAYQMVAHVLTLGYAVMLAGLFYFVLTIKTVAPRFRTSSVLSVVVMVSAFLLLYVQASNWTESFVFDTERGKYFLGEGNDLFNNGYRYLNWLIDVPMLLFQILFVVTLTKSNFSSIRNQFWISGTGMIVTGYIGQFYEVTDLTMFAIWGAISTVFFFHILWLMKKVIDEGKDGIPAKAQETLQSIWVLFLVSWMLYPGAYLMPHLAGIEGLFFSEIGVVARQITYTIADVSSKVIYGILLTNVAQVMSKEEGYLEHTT",
  "test": "time-resolved cryo-Raman ([…] nm preresonance) and absorption spectroscopy",
  "format": "binding",
  "conditions": "covalent; protonated Schiff base to helix G lysine; dark state all-trans; humidified film, 268 K, pH 8.0, NaCl",
  "data": [
    {"molecule": "CC1=C(/C=C/C(C)=C/C=C/C(C)=C/C=O)C(C)(C)CCC1", "note": "[retinal]", "values": [
      {"measurement": "time-resolved cryo-Raman (785 nm preresonance) and absorption spectroscopy", "value": "the vibrational modes of the RSB chromophore were selectively observed due to the preresonance enhancement"}
    ]}
  ]
}
